{
  "source": "the supplement of paper PMC10307832",
  "experiment_in_all_cases": "relative viability (nuclei count vs DMSO), 5 days (fraction); higher = more cells survive",
  "key": {"[1]": {"compound": "Cc1ccc(C(=O)N(CCCN)[C@@H](c2nc3cc(Cl)ccc3c(=O)n2Cc2ccccc2)C(C)C)cc1 [Ispinesib] + CS(=O)(=O)N1CCN(Cc2cc3nc(-c4cccc5[nH]ncc45)nc(N4CCOCC4)c3s2)CC1 [Pictilisib] (partner 1 µM)", "how_it_was_run": "(§1)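 Lung cancer cell lines in 1536-well plates got either a single drug or a fixed anchor-drug dose together with five library-drug doses (not always all listed) in √10 steps, by pin tool, on the day after seeding. Nuclei were counted after 5 days, and relative viability is the treated-to-vehicle ratio of nuclei counts. Values are medians of duplicate plates.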"}, "[2]": {"compound": "Cc1ccc(C(=O)N(CCCN)[C@@H](c2nc3cc(Cl)ccc3c(=O)n2Cc2ccccc2)C(C)C)cc1 [Ispinesib] + O=C(c1cc(Cc2n[nH]c(=O)c3ccccc23)ccc1F)N1CCN(C(=O)C2CC2)CC1 [Olaparib] (partner 8 µM)", "how_it_was_run": "as §1"}, "[3]": {"compound": "C[C@]1(O)C[C@@H](c2nc(-c3ccc4ccc(-c5ccccc5)nc4c3)c3c(N)nccn32)C1 [Linsitinib] + Cc1cc(Nc2cc(N3CCN(C)CC3)nc(Sc3ccc(NC(=O)C4CC4)cc3)n2)n[nH]1 [Tozasertib] (partner 0.1 µM)", "how_it_was_run": "as §1"}, "[4]": {"compound": "Cc1ccc(C(=O)N(CCCN)[C@@H](c2nc3cc(Cl)ccc3c(=O)n2Cc2ccccc2)C(C)C)cc1 [Ispinesib] + O=C(CCCCCCC(=O)Nc1ccccc1)NO [Vorinostat] (partner 1 µM)", "how_it_was_run": "as §1"}},
  "data": [
    {"cell line": "UMC-11", "values": [
      {"measurement": "relative viability", "setting": "[1]; first compound 0.001 µM", "value": 0.653},
      {"measurement": "relative viability", "setting": "[1]; first compound 0.003162 µM", "value": 0.94},
      {"measurement": "relative viability", "setting": "[1]; first compound 0.01 µM", "value": 0.701},
      {"measurement": "relative viability", "setting": "[1]; first compound 0.03162 µM", "value": 0.2},
      {"measurement": "relative viability", "setting": "[1]; first compound 0.1 µM", "value": 0.263},
      {"measurement": "relative viability", "setting": "[2]; first compound 0.001 µM", "value": 0.693},
      {"measurement": "relative viability", "setting": "[2]; first compound 0.003162 µM", "value": 0.389},
      {"measurement": "relative viability", "setting": "[2]; first compound 0.01 µM", "value": 0.345},
      {"measurement": "relative viability", "setting": "[2]; first compound 0.03162 µM", "value": 0.325},
      {"measurement": "relative viability", "setting": "[2]; first compound 0.1 µM", "value": 0.272},
      {"measurement": "relative viability", "setting": "[3]; first compound 0.01 µM", "value": 0.204},
      {"measurement": "relative viability", "setting": "[3]; first compound 0.1 µM", "value": 0.196},
      {"measurement": "relative viability", "setting": "[3]; first compound 1 µM", "value": 0.19},
      {"measurement": "relative viability", "setting": "[4]; first compound 0.001 µM", "value": 0.308},
      {"measurement": "relative viability", "setting": "[4]; first compound 0.003162 µM", "value": 0.459},
      {"measurement": "relative viability", "setting": "[4]; first compound 0.01 µM", "value": 0.327},
      {"measurement": "relative viability", "setting": "[4]; first compound 0.03162 µM", "value": 0.281},
      {"measurement": "relative viability", "setting": "[4]; first compound 0.1 µM", "value": 0.319}
    ]}
  ]
}
